Here are results for three compounds from ChEMBL document CHEMBL3045819, “Potent limonoid insect antifeedant from Melia azedarach” (2002).

What all share (format): functional
For assay [1], the system named is Epilachna. Kind of assay: Antifeedant activity against larvae of Epilachna paenulata in Cucurbita maxima leaves at 4 ug/cm2 after 24 hr by leaf disc choice test.
For assay [2], the system named is Spodoptera eridania. Kind of assay: Antifeedant activity against larvae of Spodoptera eridania in Cucurbita maxima leaves at 14 ug/cm2 after 24 hr by leaf disk choice test.
The subject of assay [3] is Epilachna. Kind of assay: Antifeedant activity against larvae of Epilachna paenulata in Cucurbita maxima leaves at 10 ug/cm2 after 24 hr by leaf disc choice test.
For assay [4], the system named is Spodoptera eridania. Kind of assay: Antifeedant activity against larvae of Spodoptera eridania in Cucurbita maxima leaves at 1 ug/cm2 after 24 hr by leaf disk choice test.
Assay [5] has as its system Spodoptera eridania. Kind of assay: Antifeedant activity against larvae of Spodoptera eridania in Cucurbita maxima leaves at 4 ug/cm2 after 24 hr by leaf disk choice test.
For assay [6], the system named is Spodoptera eridania. Kind of assay: Antifeedant activity against larvae of Spodoptera eridania in Cucurbita maxima leaves at 0.25 ug/cm2 after 24 hr by leaf disk choice test.
Assay [7] concerns Spodoptera eridania. Kind of assay: Antifeedant activity against larvae of Spodoptera eridania in Cucurbita maxima leaves at 10 ug/cm2 after 24 hr by leaf disk choice test.
Assay [8] deals with Spodoptera eridania. Kind of assay: Antifeedant activity against larvae of Spodoptera eridania in Cucurbita maxima leaves at 0.5 ug/cm2 after 24 hr by leaf disk choice test.
The subject of assay [9] is Epilachna. Kind of assay: Antifeedant activity against larvae of Epilachna paenulata in Cucurbita maxima leaves at 8 ug/cm2 after 24 hr by leaf disc choice test.
Assay [10] relates to Epilachna. Kind of assay: Antifeedant activity against larvae of Epilachna paenulata in Cucurbita maxima leaves at 0.5 ug/cm2 after 24 hr by leaf disc choice test.
The subject of assay [11] is Epilachna. Kind of assay: Antifeedant activity against larvae of Epilachna paenulata in Cucurbita maxima leaves at 1 ug/cm2 after 24 hr by leaf disc choice test.

In the case of `CC(=O)O[C@@H]1C[C@H](O)[C@@]23CO[C@@H](O)[C@]1(C)[C@@H]2C[C@@H](O)[C@]1(C)[C@@H]3C(=O)[C@H](OC(C)=O)[C@@]2(C)[C@H](c3ccoc3)C[C@H]3O[C@]321` [TOOSENDANIN], the AFI in assay [1] amounted to 54.8%; in assay [2] it was 87.8%; in [3], 90.7%; in [4], 65.1%; in assay [5] it was 71.8%; in [6], 45.8%. The AFI in assay [7] was determined as 79.3%; in assay [8], 58.7%; in [9], 78.2%.

As to `CC(=O)O[C@@H]1C[C@H](O)[C@@]23CO[C@H](O)[C@]1(C)[C@@H]2C[C@@H](O)[C@]1(C)[C@@H]3C(=O)[C@H](O)[C@@]2(C)[C@H](c3ccoc3)C[C@H]3O[C@@]321` [12-HYDROXYAMOORASTATIN], the AFI in assay [1] is 96.1%; in [10], 36.4%; in assay [4] it was 91.2%; in assay [5], 95.5%; in assay [6], 35.5%; in assay [8], 57.5%. Besides, the AFI in [11] is listed as 52.1%.

Take `C/C=C(\C)C(=O)O[C@H]1C[C@@H](OC(C)=O)[C@@]2(C(=O)OC)CO[C@H]3[C@@H](O)[C@@](C)([C@]45O[C@@]4(C)[C@@H]4C[C@H]5O[C@@H]5OC=C[C@@]54O)[C@H]4[C@]1(CO[C@]4(O)C(=O)OC)[C@@H]32` [AZADIRACHTIN A]: the AFI is 97.6% in assay [1]; 35.7% in assay [10]; 94.2% in [4]; 94% in assay [5]; 57.3% in assay [6]; 91.2% in [8]. For the same compound, the AFI in assay [11] is reported as 62.2%.
